Data from PMC7188779, “Hydroxypropyl-β-Cyclodextrin Complexes of Styryllactones Enhance the Anti-Tumor Effect in SW1116 Cell Line” (Frontiers in Pharmacology, 2020).
Entries after “also recorded” stand apart in the source; their conditions may differ. Where two headings read alike, the source gives them in different places.

Key:
[1] = system: human embryonic kidney 293T (HEK293T) cell line; test: MTT cytotoxicity against normal cell line HEK293T; type: cell-based; settings: 24 h; for IC50: Homo sapiens, HEK-293T, means ± SEM (n=3)
Procedure: (§1) The human colon cancer SW1116 cell line, the human hepatocellular carcinoma SMMC-7721 cell line, the human gastric cancer SGC-7901 cell line, and the human hepatocellular carcinoma HepG2 cell line were kindly provided by Xiao-li Xu from the Cancer Center, Fudan University. The human embryonic kidney 293T (HEK293T) cell line was kindly donated by Professor You-hua Xie from Fudan University. These human cancer cell lines were cultured in DMEM medium or RPMI-1640 medium, whereas the HEK293T cell line was cultured in MEM medium. All of the cell lines were supplemented with 10% FBS, penicillin (100 U/ml), and streptomycin ([…]) under a humidified atmosphere of 5% CO2 at 37°C using a CO2 incubator (SANYO, Osaka, Japan). Cell count was assessed using the trypan blue dye exclusion method.
(§2) The antiproliferative effects of the treatments were evaluated using the MTT assay. Cells were seeded at a density of 5×10^3 cells/well in 96-well plates (Corning, NY, USA). After attachment, the culture media were replaced with various concentrations of chemicals for 24 h. Then, the media in 96-well plates were incubated with MTT reagent (5 mg/ml) for 4 h at 37°C. Subsequently, the culture medium was discarded and 100 μl of DMSO was added to each well, to solubilize the formazan crystal formed. The absorbance of formazan crystal solution was determined at 570 nm on a Multiskan FC from Thermo Fisher Scientific Inc. (Waltham, MA, USA).

[2] = system: human gastric cancer SGC-7901 cell line; test: MTT antiproliferative assay, SGC-7901; type: cell-based; settings: 24 h, 1.0-100.0 μM, means ± SEM (n=3)
Procedure: as §1, §2

[3] = system: human hepatocellular carcinoma SMMC-7721 cell line; test: MTT antiproliferative assay, SMMC-7721; type: cell-based; settings: for IC50: Homo sapiens, SMMC-7721, means ± SEM (n=3)
Procedure: as §1, §2

[4] = system: human hepatocellular carcinoma HepG2 cell line; test: MTT antiproliferative assay, HepG2; type: cell-based; settings: 24 h, 1.0-100.0 μM, means ± SEM (n=3)
Procedure: as §1, §2

[5] = system: human colon cancer SW1116 cell line; test: MTT antiproliferative assay, SW1116; type: cell-based; settings: for IC50: Homo sapiens, SW 1116, means ± SEM (n=3); for cell viability of SW1116 cells compared with normal group (0 μM): 30 μM, p < 0.01
Procedure: as §1, §2

MCF7 (breast carcinoma) = system: MCF7 (breast carcinoma); design: method as in Trieu et al., 2014; settings: ref Trieu et al., 2014; cited from earlier work
[6] = system: KB (oral epidermoid carcinoma cell line); design: method as in Trieu et al., 2014; settings: ref Trieu et al., 2014; cited from earlier work
HepG2 (liver cancer) = system: HepG2 (liver cancer); design: method as in Trieu et al., 2014; settings: ref Trieu et al., 2014; cited from earlier work
SW1116 cells = test: Annexin V-FITC/PI double staining by flow cytometry; type: cell-based, human; settings: 36 h
Procedure: The growing cells were incubated in 24-well microplates (Corning, NY, USA) for 24 h. The cells were then treated with various concentrations of leiocarpin E-7′-monoacetate or taxol in humidified air with 5% CO2 at 37°C. After 36 h of incubation, the culture medium was discarded, and the cells were collected. For the apoptosis analysis, cells were suspended with 1×binding buffer (1×10^6 cells/ml) and then labeled with annexin V-FITC/PI, as per the manufacturer's instructions (Keygentec, Nanjing, Jiangsu, China). The analysis of the samples was performed by flow cytometry (Becton-Dickinson Bioscience, San Jose, CA, USA), and the acquired data was analyzed by the CellQuest software (Becton-Dickinson Bioscience, San Jose, CA, USA).

[7] = system: caspase-3, -8 and -9 in SW1116 cells; test: Caspase activity assay in cell lysates; type: cell-based, human; settings: 8 h
Procedure: To evaluate the activity of caspases, cell lysates were prepared after their respective designated treatments. The incubation of the growing cells was carried out in 24-well microplates (Corning, NY, USA) for 24 h. The cells were then treated with different concentrations of leiocarpin E-7′-monoacetate under humidified air with 5% CO2 at 37°C. After 8 h of incubation, the culture medium was discarded, the cells collected and washed twice with PBS. The mixture was then centrifuged at 2,000 rpm for 5 min. The PBS supernatant was discarded and the cells (concentration, 5×10^6 cells) were collected. To these cells, ice-cold lysis buffer (150~200 μl) was added. The mixture was placed on ice for 30 min, and then centrifuged (10,000 rpm, 1 min) at 4°C. The supernatant, containing lysed protein, was carefully aspirated and transferred to a new tube. The protein concentration was then measured in 2 μl of the supernatant using the Bradford method. The caspase assays were then performed in 96-well microtiter plates (Keygentec, Nanjing, Jiangsu, China) by incubating 10 μl of protein cell lysate per sample in 80 μl of reaction buffer (1% NP-40, 20 mM Tris-HCl (pH 7.5), 137 mM NaCl, and 10% glycerol) containing 10 μl of caspase substrate (2 mM). Lysates were incubated at 37°C for 4 h. Measuremet was done at 405 nm on a Multiskan FC from Thermo Fisher Scientific Inc. (Waltham, MA, USA). The detailed analysis procedure is described in the manufacturer's protocol (Keygentec, Nanjing, Jiangsu, China).

[8] = 1.0-100.0 μM, read-out: IC50 HEK293T
[9] = MTT, 24 h, 1.0-100.0 μM, read-out: IC50 SMMC-7721
[10] = MTT, 24 h, 1.0-100.0 μM, read-out: IC50 SW1116

Row | Compound | IC50 [2] [µM] | IC50 [3, 9] [µM] | IC50 [4] [µM] | IC50 [5, 10] [µM] | IC50 [1, 8] [µM] | cell viability of SW1116 cells compared with normal group (0 μM) ([5]; 24 h) | further results
1 | COc1cc([C@@H]2c3cc4c(cc3[C@@H](O[C@@H]3O[C@@H]5CO[C@@H](C)O[C@H]5[C@H](O)[C@H]3O)[C@H]3COC(=O)[C@H]23)OCO4)cc(OC)c1O [VP-16, Etoposide, reference compound] | > 100 | > 100 | > 100 | 41.9 ± 0.98 | > 100 | – | –
2 | CC(=O)OC1C(c2ccccc2)OC2C=CC(=O)OC21 (centres unmarked) [7-acetylaltholactone] | – | – | – | – | – | – | IC50 (MCF7 (breast carcinoma)): 60.2 µM; IC50 [6]: 13.1 µM; IC50 (HepG2 (liver cancer)): 23.7 µM
3 | CC(=O)O[C@H]1C=CC(=O)O[C@H]1[C@H]1O[C@@H]1c1ccccc1 [Cheliensisin A, (2R,3S)-6-oxo-2-((2S,3R)-3-phenyloxiran-2-yl)-3,6-dihydro-2H-pyran-3-yl acetate] | > 100 | > 100 | > 100 | 93.18 ± 0.78 | > 100 | – | IC50 ([1]; pristine compound, 25.0-200.0 μM, read-out: IC50 HEK293T Compound): > 200 µM; IC50 ([3]; pristine compound, MTT, 24 h, 25.0-200.0 μM, read-out: IC50 SMMC-7721 Compound): 111 ± 2.41 µM; IC50 reduced by complexation with HP-β-CD, SMMC-7721 ([3]; complex vs pristine compound): 58%; IC50 ([5]; pristine compound, MTT, 24 h, 25.0-200.0 μM, read-out: IC50 SW1116 Compound): 93.18 ± 0.78 µM; IC50 reduced by complexation with HP-β-CD, SW1116 ([5]; complex vs pristine compound): 45%
4 | hydroxypropyl-β-cyclodextrin [HP-β-CD] | – | – | – | – | – | – | inhibitory activity against HEK293T ([1]; 25.0-200.0 μM): did not show any inhibitory activity; inhibition of growth, SMMC-7721 ([3]; MTT, 24 h, 25.0-200.0 μM): did not show any inhibition; also recorded: no inhibitory effect; inhibition of growth, SW1116 ([5]; MTT, 24 h, 25.0-200.0 μM): did not show any inhibition; also recorded: no inhibitory effect

Continued, in another order:

Row | IC50 [2] [µM] | IC50 [3, 9] [µM] | IC50 [4] [µM] | IC50 [5, 10] [µM] | Compound | IC50 [1, 8] [µM] | cell viability of SW1116 cells compared with normal group (0 μM) ([5]; 24 h) | further results
5 | 18.2 ± 0.88 | 15.5 ± 1.11 | 19.3 ± 1.42 | 17.5 ± 0.69 | O=C1C=CC[C@H]([C@@H](O)[C@H](Oc2cc(O)c3c(c2)O[C@H](c2ccccc2)CC3=O)c2ccccc2)O1 [Leiocarpin B, (S)-5-hydroxy-7-((1R,2R)-2-hydroxy-2-((R)-6-oxo-3,6-dihydro-2H-pyran-2-yl)-1-phenylethoxy)-2-phenylchroman-4-one] | > 100 | significantly less | –
6 | > 100 | > 100 | > 100 | 15.1 ± 1.87 | O=C1C=CC[C@H]([C@@H](O)[C@H]2O[C@H]([C@H]3CC=CC(=O)O3)[C@@H](c3ccccc3)c3ccccc32)O1 [Leiocarpin E, (R)-6-((R)-hydroxy((1S,3S,4S)-3-((R)-6-oxo-3,6-dihydro-2H-pyran-2-yl)-4-phenylisochroman-1-yl)methyl)-5,6-dihydro-2H-pyran-2-one] | > 100 | significantly less | –
7 | 45 ± 4.27 | 61.7 ± 10.1 | 50.1 ± 3.25 | 6.73 ± 0.89 | CC(=O)OC(C1CC=CC(=O)O1)C1OC(C2CC=CC(=O)O2)C(c2ccccc2)c2ccccc21 (centres unmarked) [Leiocarpin E-7′-monoacetate, leiocarpin E-7′-monoacetate] | > 100 | significantly less | early apoptosis rate (Q4) (SW1116 cells; SW1116, 3 μM): 2.6%; early apoptosis rate (Q4) (SW1116 cells; SW1116, 10 μM): 21.8%; early apoptosis rate (Q4) (SW1116 cells; SW1116, 30 μM): 55.2%; ratio of ODsample to ODnegative (caspase activity) ([7]; SW1116, 3 μM): ≤ 1; ratio of ODsample to ODnegative (caspase activity) ([7]; SW1116, 10 μM): greater than 1; ratio of ODsample to ODnegative (caspase activity) ([7]; SW1116, 30 μM): greater than 1
8 | > 100 | > 100 | > 100 | 80 ± 4.16 | O=C1C=CC[C@H]([C@H](O)[C@H](O)c2ccccc2)O1 [Goniodiol, (R)-6-((1R,2R)-1,2-dihydroxy-2-phenylethyl)-5,6-dihydro-2H-pyran-2-one] | > 100 | – | –
